Data published in patent US7217711B2, “Piperazin-1-yl and 2-([1,4]diazepan-1-yl)-imidazo[4,5-d]-pyridazin-4-ones, the preparation thereof and their use as pharmaceutical compositions” (Boehringer Ingelheim International GmbH, priority 2003, dated 2007).

Key:
DPP-IV = molecular target: T1, DPP-IV (Homo sapiens, UniProt P27487); test: DPP-IV assay with extract of Caco-2 cells as DPP IV source, AFC substrate, fluorescence; assay type: biochemical; details: extract of human colon carcinoma cell line Caco-2; substrate 100 μM; 60 minutes at ambient temperature; read-out: DPP IV inhibition IC50
T1 construct: an extract of the human colon carcinoma cell line Caco-2 is used as the DPP IV source; endogenous in cells; host or cells: Caco-2 (human colon carcinoma), differentiated to induce DPP-IV expression; Nonidet-P40 solubilised extract
T1 sequence (P27487 whole entry): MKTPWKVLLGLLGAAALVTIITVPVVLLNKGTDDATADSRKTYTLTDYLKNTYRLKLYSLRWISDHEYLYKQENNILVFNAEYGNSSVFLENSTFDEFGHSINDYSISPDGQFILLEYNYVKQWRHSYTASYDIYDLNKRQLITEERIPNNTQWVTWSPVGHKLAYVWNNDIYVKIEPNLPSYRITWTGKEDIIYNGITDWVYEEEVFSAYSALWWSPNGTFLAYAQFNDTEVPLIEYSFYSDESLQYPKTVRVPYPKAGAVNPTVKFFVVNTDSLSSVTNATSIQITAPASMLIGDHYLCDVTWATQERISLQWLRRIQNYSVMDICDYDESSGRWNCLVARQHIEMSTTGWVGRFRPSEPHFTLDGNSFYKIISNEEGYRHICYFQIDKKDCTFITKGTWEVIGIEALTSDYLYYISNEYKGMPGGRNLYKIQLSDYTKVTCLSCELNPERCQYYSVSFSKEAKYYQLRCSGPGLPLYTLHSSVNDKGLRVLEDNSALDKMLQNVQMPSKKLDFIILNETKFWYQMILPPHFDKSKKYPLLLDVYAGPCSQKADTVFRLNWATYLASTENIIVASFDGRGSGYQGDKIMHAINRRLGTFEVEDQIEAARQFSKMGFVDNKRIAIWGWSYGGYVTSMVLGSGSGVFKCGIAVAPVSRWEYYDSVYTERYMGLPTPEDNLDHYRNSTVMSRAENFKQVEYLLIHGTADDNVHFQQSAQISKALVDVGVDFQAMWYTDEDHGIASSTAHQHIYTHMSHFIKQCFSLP
Description: The cell extract was obtained from cells solubilised in a buffer (10 mM Tris HCl, 0.15 M NaCl, 0.04 t.i.u. aprotinin, 0.5% Nonidet-P40, pH 8.0) by centrifugation at 35,000 g for 30 minutes at 4° C. (to remove cell debris).
The DPP-IV assay was carried out as follows:
50 μl of substrate solution (AFC; AFC is amido-4-trifluoromethylcoumarin), final concentration 100 μM, were placed in black microtitre plates. 20 μl of assay buffer (final concentrations 50 mM Tris HCl pH 7.8, 50 mM NaCl, 1% DMSO) was pipetted in. The reaction was started by the addition of 30 μl of solubilised Caco-2 protein (final concentration 0.14 μg of protein per well). The test substances under investigation were typically added prediluted to 20 μl, while the volume of assay buffer was then reduced accordingly. The reaction was carried out at ambient temperature, the incubation period was 60 minutes. […] Dummy values (corresponding to 0% activity) were obtained in mixtures with no Caco-2 protein (volume replaced by assay buffer), control values (corresponding to 100% activity) were obtained in mixtures without any added substance.

rats = test: Tolerability in rats after oral administration; assay type: in vivo; details: oral administration of 10 mg/kg

SMILES | IC50 (DPP-IV) [nM] | toxic side effects (rats)
CC#CCn1c(N2CCNCC2)nc2cnn(Cc3ccc4c(c3)nnn4C)c(=O)c21 [1(11), 2-(piperazin-1-yl)-3-(2-butyn-1-yl)-5-[(1-methyl-1H-benzotriazol-5-yl)methyl]-3,5-dihydro-imidazo[4,5-d]pyridazin-4-one] | 2 | –
CC#CCn1c(N2CCNCC2)nc2cnn(Cc3nc4c(C)cccc4o3)c(=O)c21 [1(9), 2-(piperazin-1-yl)-3-(2-butyn-1-yl)-5-[(4-methyl-benzoxazol-2-yl)methyl]-3,5-dihydro-imidazo[4,5-d]pyridazin-4-one] | 3 | –
CC#CCn1c(N2CCNCC2)nc2cnn(Cc3nc(C)c4ccccc4n3)c(=O)c21 [Example 1, 2-(piperazin-1-yl)-3-(2-butyn-1-yl)-5-[(4-methyl-quinazolin-2-yl)methyl]-3,5-dihydro-imidazo[4,5-d]pyridazin-4-one] | – | no toxic side effects could be detected
CC#CCn1c(N2CCNCC2)nc2cnn(Cc3cc(C)c4nc(C)c(C)nc4c3)c(=O)c21 [Example 2, 2-(piperazin-1-yl)-3-(2-butyn-1-yl)-5-[(2,3,8-trimethyl-quinoxalin-6-yl)methyl]-3,5-dihydro-imidazo[4,5-d]pyridazin-4-one] | 14 | –
CC#CCn1c(N2CCCNCC2)nc2cnn(Cc3nc4c(C)cccc4o3)c(=O)c21 [1(13), 2-([1,4]diazepan-1-yl)-3-(2-butyn-1-yl)-5-[(4-methyl-benzoxazol-2-yl)methyl]-3,5-dihydro-imidazo[4,5-d]pyridazin-4-one] | 5 | –
CC#CCn1c(N2CCCNCC2)nc2cnn(Cc3cc(C)c4nc(C)c(C)nc4c3)c(=O)c21 [1(2), 2-([1,4]diazepan-1-yl)-3-(2-butyn-1-yl)-5-[(2,3,8-trimethyl-quinoxalin-6-yl)methyl]-3,5-dihydro-imidazo[4,5-d]pyridazin-4-one] | 17 | –
CC#CCn1c(N2CCCNCC2)nc2cnn(Cc3ccc4c(c3)nnn4C)c(=O)c21 [1(12), 2-([1,4]diazepan-1-yl)-3-(2-butyn-1-yl)-5-[(1-methyl-1H-benzotriazol-5-yl)methyl]-3,5-dihydro-imidazo[4,5-d]pyridazin-4-one] | 4 | –
